What was measured:
Rattus norvegicus [1] = assay: Oral bioavailability in Fischer 344 rat at 50 mg/kg; type: ADME, organism-based; conditions: in vivo
[2] = Apparent elimination half life in Fischer 344 rat at 50 mg/kg, po; type: ADME, organism-based; parameters: dose 50 mg/kg, route oral; conditions: in vivo, read-out: beta t1/2 (converted)
in vitro = conditions: human, Caco-2
Description: Apparent permeability from apical to basolateral side of the human Caco-2 cells

[3] = Cmax in Fischer 344 rat at 50 mg/kg, po; type: ADME, organism-based; parameters: dose 50 mg/kg, route oral; conditions: in vivo
Rattus norvegicus [4] = assay: AUC in Fischer 344 rat at 50 mg/kg, po; type: ADME, organism-based, Plasma; parameters: dose 50 mg/kg, route oral; conditions: in vivo
[5] = Tmax in Fischer 344 rat at 50 mg/kg, po; type: ADME, organism-based; parameters: dose 50 mg/kg, route oral; conditions: in vivo
[6] = target: T1, Sodium-dependent serotonin transporter (Rattus norvegicus, UniProt P31652); type: cell-based, HEK293
T1 sequence (P31652 whole entry): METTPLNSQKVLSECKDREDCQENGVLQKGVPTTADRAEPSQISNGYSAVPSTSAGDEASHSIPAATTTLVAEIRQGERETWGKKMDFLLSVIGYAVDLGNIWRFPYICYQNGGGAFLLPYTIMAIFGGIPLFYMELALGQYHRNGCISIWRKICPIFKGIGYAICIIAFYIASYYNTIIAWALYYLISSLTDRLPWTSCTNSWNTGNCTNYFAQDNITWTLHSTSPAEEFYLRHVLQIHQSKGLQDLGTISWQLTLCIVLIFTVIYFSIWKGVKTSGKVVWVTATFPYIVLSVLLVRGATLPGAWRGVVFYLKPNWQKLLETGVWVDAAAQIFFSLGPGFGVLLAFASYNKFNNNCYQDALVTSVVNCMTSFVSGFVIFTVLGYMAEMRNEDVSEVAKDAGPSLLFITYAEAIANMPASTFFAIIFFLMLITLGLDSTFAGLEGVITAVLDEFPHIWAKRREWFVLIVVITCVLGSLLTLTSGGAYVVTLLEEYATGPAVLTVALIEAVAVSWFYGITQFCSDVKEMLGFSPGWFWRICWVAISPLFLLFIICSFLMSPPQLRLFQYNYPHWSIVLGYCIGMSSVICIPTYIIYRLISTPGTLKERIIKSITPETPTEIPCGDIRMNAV

[7] = Lipophilicity, log D of the compound; type: physicochemical; conditions: octanol/water
[8] = target: Sodium-dependent dopamine transporter (Rattus norvegicus, UniProt P23977); assay: biochemical
Chain of Sodium-dependent dopamine transporter (Rattus norvegicus, UniProt P23977) (P23977 whole entry): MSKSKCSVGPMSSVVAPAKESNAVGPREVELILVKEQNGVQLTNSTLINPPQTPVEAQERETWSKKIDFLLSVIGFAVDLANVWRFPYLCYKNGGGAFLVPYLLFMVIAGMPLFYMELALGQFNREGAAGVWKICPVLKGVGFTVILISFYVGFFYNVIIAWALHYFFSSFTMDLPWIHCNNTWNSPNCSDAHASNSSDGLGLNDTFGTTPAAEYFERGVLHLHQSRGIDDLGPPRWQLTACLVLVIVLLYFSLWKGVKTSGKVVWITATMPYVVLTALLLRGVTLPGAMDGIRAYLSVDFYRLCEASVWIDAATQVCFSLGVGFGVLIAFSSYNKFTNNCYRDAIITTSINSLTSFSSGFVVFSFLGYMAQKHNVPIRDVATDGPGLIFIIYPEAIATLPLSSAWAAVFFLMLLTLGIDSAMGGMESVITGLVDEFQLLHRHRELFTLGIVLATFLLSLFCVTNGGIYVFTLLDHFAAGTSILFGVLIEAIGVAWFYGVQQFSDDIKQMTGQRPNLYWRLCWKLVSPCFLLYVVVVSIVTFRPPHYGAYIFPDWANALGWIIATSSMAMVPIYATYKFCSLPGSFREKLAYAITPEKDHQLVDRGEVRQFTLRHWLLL
Description: Displacement of 3,4-[ring-2,5,6-3H]dihydroxyphenylethylamine from rat synaptosomal DAT expressed in HEK293 cells by microplate scintillation counter

[9] = Metabolic stability in human liver microsomes assessed as systemic clearance at 1 uM after 15 mins by LC-MS/MS analysis; type: ADME, Microsome
[10] = target: T1, Sodium-dependent serotonin transporter; assay: Inhibition of radiolabeled serotonin uptake from rat brain SERT
[11] = Metabolic stability in rat liver microsomes assessed as systemic clearance at 1 uM after 15 mins by LC-MS/MS analysis; type: ADME, Microsome
[12] = Drug excretion in human urine; type: ADME; conditions: read-out: Activity
[13] = Oral bioavailability in human; type: ADME, organism-based; conditions: in vivo
Transporter [14] = target: T2, Transporter (Rattus norvegicus, UniProt Q63380)
T2 sequence (Q63380 whole entry): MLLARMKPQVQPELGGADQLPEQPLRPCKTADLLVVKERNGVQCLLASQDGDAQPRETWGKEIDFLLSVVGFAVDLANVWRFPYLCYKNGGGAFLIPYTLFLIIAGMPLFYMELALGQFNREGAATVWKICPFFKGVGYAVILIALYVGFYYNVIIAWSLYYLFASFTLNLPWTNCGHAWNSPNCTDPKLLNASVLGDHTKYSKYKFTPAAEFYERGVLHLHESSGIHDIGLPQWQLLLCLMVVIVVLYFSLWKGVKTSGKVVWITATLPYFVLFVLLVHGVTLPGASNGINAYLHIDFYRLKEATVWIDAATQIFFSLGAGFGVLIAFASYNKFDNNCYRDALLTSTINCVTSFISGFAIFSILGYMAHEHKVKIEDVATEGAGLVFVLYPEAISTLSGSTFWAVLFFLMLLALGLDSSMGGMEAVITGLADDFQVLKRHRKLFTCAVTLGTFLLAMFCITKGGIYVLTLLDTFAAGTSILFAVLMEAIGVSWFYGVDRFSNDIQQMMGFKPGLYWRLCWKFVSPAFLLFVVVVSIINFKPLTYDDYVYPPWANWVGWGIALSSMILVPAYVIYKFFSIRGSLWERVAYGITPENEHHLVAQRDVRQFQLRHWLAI
Description: Inhibition of radiolabeled noradrenaline uptake from rat brain NET

[15] = Partition coefficient, log P of the compound; type: physicochemical; conditions: octanol/water
[16] = Tmax in Sprague-Dawley rat at 30 mg/kg, po; type: ADME, organism-based; parameters: dose 30 mg/kg, route oral; conditions: in vivo
[17] = target: Sodium-dependent dopamine transporter (Homo sapiens, UniProt Q01959); assay: biochemical
Chain of Sodium-dependent dopamine transporter (Homo sapiens, UniProt Q01959) (Q01959 whole entry): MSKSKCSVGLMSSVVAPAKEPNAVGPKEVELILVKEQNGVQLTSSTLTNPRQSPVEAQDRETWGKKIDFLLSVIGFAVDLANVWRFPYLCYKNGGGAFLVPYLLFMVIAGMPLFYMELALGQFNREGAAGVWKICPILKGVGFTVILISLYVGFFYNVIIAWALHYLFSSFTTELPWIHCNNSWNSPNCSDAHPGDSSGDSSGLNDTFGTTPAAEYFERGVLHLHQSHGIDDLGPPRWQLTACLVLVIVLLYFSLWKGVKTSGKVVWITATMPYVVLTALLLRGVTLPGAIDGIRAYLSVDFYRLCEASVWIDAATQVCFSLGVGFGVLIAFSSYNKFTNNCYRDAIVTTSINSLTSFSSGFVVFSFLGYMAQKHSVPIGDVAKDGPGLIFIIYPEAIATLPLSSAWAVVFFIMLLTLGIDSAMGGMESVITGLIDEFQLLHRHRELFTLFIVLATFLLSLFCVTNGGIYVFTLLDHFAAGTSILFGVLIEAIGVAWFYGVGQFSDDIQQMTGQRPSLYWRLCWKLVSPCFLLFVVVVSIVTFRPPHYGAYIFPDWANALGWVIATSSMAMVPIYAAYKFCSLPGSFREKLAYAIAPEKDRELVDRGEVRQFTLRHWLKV
Description: Displacement of 3,4-[ring-2,5,6-3H]dihydroxyphenylethylamine from human cloned DAT expressed in HEK293 cells by microplate scintillation counter

[18] = Plasma clearance in Sprague-Dawley rat at 5 mg/kg, iv; type: ADME, organism-based; parameters: dose 5 mg/kg, route intravenous
[19] = Half life in Sprague-Dawley rat at 5 mg/kg, iv; type: ADME, organism-based; parameters: dose 5 mg/kg, route intravenous; conditions: in vivo
[20] = target: Sodium-dependent serotonin transporter (Homo sapiens, UniProt P31645); assay: biochemical
Chain of Sodium-dependent serotonin transporter (Homo sapiens, UniProt P31645) (P31645 whole entry): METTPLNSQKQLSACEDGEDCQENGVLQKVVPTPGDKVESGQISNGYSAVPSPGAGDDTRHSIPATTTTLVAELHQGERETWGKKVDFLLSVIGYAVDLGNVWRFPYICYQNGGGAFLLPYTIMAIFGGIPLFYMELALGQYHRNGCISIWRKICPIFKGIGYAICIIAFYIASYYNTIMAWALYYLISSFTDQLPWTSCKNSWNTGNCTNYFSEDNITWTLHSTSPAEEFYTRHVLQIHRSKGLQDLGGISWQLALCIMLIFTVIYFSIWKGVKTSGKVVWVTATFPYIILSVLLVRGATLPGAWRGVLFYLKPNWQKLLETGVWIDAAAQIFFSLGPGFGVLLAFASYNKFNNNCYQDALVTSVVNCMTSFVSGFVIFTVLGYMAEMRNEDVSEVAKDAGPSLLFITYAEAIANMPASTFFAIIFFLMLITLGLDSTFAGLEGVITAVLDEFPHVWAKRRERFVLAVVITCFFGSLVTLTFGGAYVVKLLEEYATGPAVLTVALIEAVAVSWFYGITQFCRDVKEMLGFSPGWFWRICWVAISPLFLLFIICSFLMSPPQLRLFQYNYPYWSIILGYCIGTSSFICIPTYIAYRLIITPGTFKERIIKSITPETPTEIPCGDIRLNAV
Description: Displacement of [alpha,beta-3H(N)]-5-hydroxytryptamine from human cloned SERT expressed in HEK293 cells by microplate scintillation counter

[21] = Volume of distribution at steady state in Sprague-Dawley rat at 5 mg/kg, iv; type: ADME, organism-based; parameters: dose 5 mg/kg, route intravenous; conditions: in vivo, read-out: Vdss
Rattus norvegicus [22] = assay: Reversal of pin-prick-induced neuropathic mechanical hyperalgesia in Harlan Sprague-Dawley rat sciatic nerve ligation model at 30 mg/kg, po; type: functional
[23] = Renal clearance in Sprague-Dawley rat at 5 mg/kg, iv; type: ADME, organism-based, Kidney; parameters: dose 5 mg/kg, route intravenous; conditions: in vivo, read-out: CL_renal
Rattus norvegicus [24] = assay: Antinociceptive activity in CD rat assessed as reduction in number of hind paw flinching at 60 mg/kg, po by formalin test; type: functional; parameters: scale not given: the % may be the effect or the level left
[25] = AUC in Sprague-Dawley rat at 30 mg/kg, po; type: ADME, organism-based; parameters: dose 30 mg/kg, route oral; conditions: plasma
[26] = Mean residence time in Sprague-Dawley rat at 5 mg/kg, iv; type: ADME, organism-based; parameters: dose 5 mg/kg, route intravenous; conditions: in vivo
[27] = Ratio of drug level in brain to plasma in Sprague-Dawley rat at 30 mg/kg, po after 4 hrs; type: ADME, organism-based; parameters: dose 30 mg/kg, route oral
[28] = Ratio of drug level in brain to plasma in Sprague-Dawley rat at 30 mg/kg, po after 1 hr; type: ADME, organism-based; parameters: dose 30 mg/kg, route oral
[29] = Bioavailability in Sprague-Dawley rat at 5 mg/kg, iv; type: ADME, organism-based; conditions: in vivo
[30] = Cmax in Sprague-Dawley rat at 30 mg/kg, po; type: ADME, organism-based; parameters: dose 30 mg/kg, route oral; conditions: in vivo
[31] = Drug level in Sprague-Dawley rat brain at 30 mg/kg, po after 1 hr; type: ADME, organism-based; parameters: dose 30 mg/kg, route oral; conditions: read-out: Drug uptake
[32] = Apparent oral clearance in Sprague-Dawley rat at 30 mg/kg, po; type: ADME, organism-based; parameters: dose 30 mg/kg, route oral; conditions: in vivo
[33] = AUC in Sprague-Dawley rat at 5 mg/kg, iv; type: ADME, organism-based; parameters: dose 5 mg/kg, route intravenous; conditions: plasma
[34] = target: Sodium-dependent noradrenaline transporter (Homo sapiens, UniProt P23975); assay: biochemical
Chain of Sodium-dependent noradrenaline transporter (P23975 whole entry): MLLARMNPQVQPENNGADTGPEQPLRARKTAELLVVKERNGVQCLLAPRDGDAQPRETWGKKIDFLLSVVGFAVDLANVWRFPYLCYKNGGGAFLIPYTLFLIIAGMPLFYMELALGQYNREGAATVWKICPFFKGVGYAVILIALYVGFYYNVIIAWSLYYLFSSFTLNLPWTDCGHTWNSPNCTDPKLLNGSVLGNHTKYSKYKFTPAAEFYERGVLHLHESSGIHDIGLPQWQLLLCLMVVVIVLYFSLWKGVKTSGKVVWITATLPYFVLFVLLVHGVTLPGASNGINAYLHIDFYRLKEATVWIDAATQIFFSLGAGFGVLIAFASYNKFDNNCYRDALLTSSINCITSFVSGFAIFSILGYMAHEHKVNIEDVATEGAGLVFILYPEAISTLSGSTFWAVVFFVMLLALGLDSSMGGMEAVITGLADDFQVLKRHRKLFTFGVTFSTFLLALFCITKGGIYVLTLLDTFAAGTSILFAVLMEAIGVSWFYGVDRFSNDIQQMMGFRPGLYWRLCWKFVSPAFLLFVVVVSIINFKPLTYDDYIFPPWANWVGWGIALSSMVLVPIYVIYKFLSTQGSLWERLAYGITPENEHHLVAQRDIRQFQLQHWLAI
Description: Displacement of Levo[ring-2,5,6-3H]norepinephrine from human cloned NET expressed in HEK293 cells by microplate scintillation counter

Transporter [35] = target: T2, Transporter; assay: biochemical
Description: Displacement of Levo[ring-2,5,6-3H]norepinephrine from rat synaptosomal NET expressed in HEK293 cells by microplate scintillation counter

[36] = Drug level in Sprague-Dawley rat brain at 30 mg/kg, po after 4 hrs; type: ADME, organism-based; parameters: dose 30 mg/kg, route oral; conditions: read-out: Drug uptake
[37] = Volume of distribution in Sprague-Dawley rat at 5 mg/kg, iv; type: ADME, organism-based; parameters: dose 5 mg/kg, route intravenous; conditions: in vivo
Cytochrome P450 2D6 = Cytochrome P450 2D6 (Homo sapiens, UniProt P10635); assay: Inhibition of CYP2D6; type: ADME
Chain of Cytochrome P450 2D6 (P10635 whole entry): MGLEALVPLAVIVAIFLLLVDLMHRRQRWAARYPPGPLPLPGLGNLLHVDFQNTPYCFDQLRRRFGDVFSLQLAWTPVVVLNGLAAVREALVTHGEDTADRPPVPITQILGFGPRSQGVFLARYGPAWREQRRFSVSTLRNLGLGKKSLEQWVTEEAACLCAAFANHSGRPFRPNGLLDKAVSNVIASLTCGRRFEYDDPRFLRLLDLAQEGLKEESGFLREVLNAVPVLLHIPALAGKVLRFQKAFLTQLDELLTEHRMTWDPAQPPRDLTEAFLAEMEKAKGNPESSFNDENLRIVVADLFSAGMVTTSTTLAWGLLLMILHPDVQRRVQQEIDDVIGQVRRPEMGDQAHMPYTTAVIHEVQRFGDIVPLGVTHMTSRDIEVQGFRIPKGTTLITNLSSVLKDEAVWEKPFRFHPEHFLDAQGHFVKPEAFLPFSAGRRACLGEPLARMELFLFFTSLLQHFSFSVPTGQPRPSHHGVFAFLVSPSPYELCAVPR

[38] = Apparent elimination half life in Sprague-Dawley rat at 30 mg/kg, po; type: ADME, organism-based; parameters: dose 30 mg/kg, route oral; conditions: in vivo, read-out: beta t1/2 (converted)

Description for physchem: Dissociation constant, pKa of the compound

**Q.** For `CNCC[C@@H](Oc1ccccc1C)c1ccccc1` [ATOMOXETINE], which F (Rattus norvegicus [1]) is on record?
**A.** Its F is 1.5%.

**Q.** And the half-life [2]?
**A.** The half-life was 168 min.

**Q.** What about the Papp A→B (in vitro) of the same molecule?
**A.** The Papp A→B was 43.7 ×10⁻⁶ cm/s.

**Q.** What about the Cmax [3] of the same molecule?
**A.** The Cmax was 170 ng/mL.

**Q.** What about the AUC (Rattus norvegicus [4]) of the same molecule?
**A.** Its AUC is 910 ng·h/mL.

**Q.** And the Tmax [5]?
**A.** The Tmax was 120 min.

**Q.** What does the source list for `CCN(CC)C(=O)C1(c2ccccc2)CC1CN` (centres undefined)?
**A.** IC50 [6]: 0.047 µM; logD [7]: 0.2; pKa (physchem): 9.5; IC50 [8]: 37 µM; CLhep predicted at 1 µM [9]: 3.1 mL/min/kg; IC50 [10]: 0.203 µM; CLhep predicted at 1 µM [11]: 24 mL/min/kg; dose excreted [12]: > 80%; bioavailability [13]: 85%; IC50 (Transporter [14]): 0.1 µM; logP [15]: 1.7

**Q.** With `C=CCN(CC=C)C(=O)[C@@]1(c2cccs2)C[C@H]1CN` as the molecule, how does the Tmax [16] read?
**A.** Its Tmax is 30 min.

**Q.** And the IC50 [17]?
**A.** The IC50 was greater than 10 µM.

**Q.** And the clearance [18]?
**A.** The clearance was 102 mL/min/kg.

**Q.** And the half-life [19]?
**A.** Its half-life is 36 min.

**Q.** And the IC50 [20]?
**A.** The IC50 was 0.032 µM.

**Q.** And the Vd [21]?
**A.** Its Vd is 4.4 L/kg.

**Q.** And the Papp A→B (in vitro)?
**A.** The Papp A→B was 16.7 ×10⁻⁶ cm/s.

**Q.** What about the IC50 [6] of the same molecule?
**A.** Its IC50 is 0.011 µM.

**Q.** And the Activity (Rattus norvegicus [22])?
**A.** The Activity was 60%.

**Q.** What about the logD [7] of the same molecule?
**A.** Its logD is 0.3.

**Q.** What about the CL renal [23] of the same molecule?
**A.** The CL renal was 11 mL/min/kg.

**Q.** What about the pKa (physchem) of the same molecule?
**A.** The pKa was 9.4.

**Q.** What about the Activity (Rattus norvegicus [24]) of the same molecule?
**A.** Its Activity is 56%.

**Q.** What about the AUC [25] of the same molecule?
**A.** Its AUC is 1130 ng·h/mL.

**Q.** And the MRT [26]?
**A.** The MRT was 42 min.

**Q.** And the Kp at 4 h [27]?
**A.** Its Kp at 4 h is 1.4.

**Q.** And the Kp at 1 h [28]?
**A.** The Kp at 1 h was 0.6.

**Q.** And the IC50 [8]?
**A.** The IC50 was 19 µM.

**Q.** And the bioavailability [29]?
**A.** The bioavailability was 12%.

**Q.** What about the Cmax [30] of the same molecule?
**A.** The Cmax was 522 ng/mL.

**Q.** And the concentration at 1 h [31]?
**A.** Its concentration at 1 h is 127 ng/g.

**Q.** What about the CL/F [32] of the same molecule?
**A.** The CL/F was 444 mL/min/kg.

**Q.** What about the AUC [33] of the same molecule?
**A.** The AUC was 721 ng·h/mL.

**Q.** And the CLhep predicted at 1 µM [9]?
**A.** Its CLhep predicted at 1 µM is 9.9 mL/min/kg.

**Q.** What about the IC50 [34] of the same molecule?
**A.** The IC50 was 0.0023 µM.

**Q.** What about the IC50 (Transporter [35]) of the same molecule?
**A.** The IC50 was 0.0046 µM.

**Q.** And the concentration at 4 h [36]?
**A.** Its concentration at 4 h is 26 ng/g.

**Q.** What about the Vd [37] of the same molecule?
**A.** Its Vd is 5.3 L/kg.

**Q.** And the CLhep predicted at 1 µM [11]?
**A.** The CLhep predicted at 1 µM was 61 mL/min/kg.

**Q.** What about the IC50 (Cytochrome P450 2D6) of the same molecule?
**A.** The IC50 was 6 µM.

**Q.** What about the half-life [38] of the same molecule?
**A.** Its half-life is 72 min.

**Q.** What about the logP [15] of the same molecule?
**A.** The logP was 2.

From ChEMBL document CHEMBL1152288, “Characterization of thien-2-yl 1S,2R-milnacipran analogues as potent norepinephrine/serotonin transporter inhibitors for the treatment of neuropathic pain” (J Med Chem, 2008)
